Assay results reported in US11952385B1, “12-bromo-2,16-dioxa-9,9,18,18-tetramethylpentacyclo[7.7.5.0 1, 21.0 3,8.0 10,15]henicosa3(8),10,12,14-tetraene-7,20-dione as an antimicrobial compound” (KING FAISAL UNIVERSITY, priority 2023, dated 2024).

Assays:
Type in all cases: cell-based
Conditions in all cases: after 10, 20, 40 and 60 minutes at all dilutions 1:100, 1:200, 1:400, and 1:800
Staphylococcus aureus = experiment: Antimicrobial activity by agar dilution, St. Aereus
Protocol: (§1) The antibacterial properties of the synthesized compound (12-bromo-2,16-dioxa-9,9,18,18-tetramethylpentacyclo[7.7.5.0^1,21.0^3,8.0^10,15]henicosa3(8),10,12,14-tetraene-7,20-dione) were studied by the method of agar dilution. Test solutions of each compound was prepared in concentration of 1% using dimethylformamide as a solvent. Then they were diluted in physiological solution to obtain the final experimental dilutions of 1:100, 1:200, 1:400, and 1:800. The effect of these substances were compared with furacillin in a controllable study. The testing microbes used were gram positive bacteria Staphylococcus aureus, gram negative bacteria Pseudomonas aeruginosa, Escherichia coli, and Candida albicans fungus. The experiments used for this survey were meat-pentonlu agar (EPA) for cultivation of bacteria and Saburo environment for fungi. Each experiment used 1 mL of test solution on each plate for 500 minutes. Two drops of emulsified with microbes feel were added. All experimental samples were taken from the agar after 10, 20, 40, 60 minutes in the environment on the basis of Patrk planted. Bacteria were cultivated at a temperature of 37° C. for 1 day and the mushroom was kept in a thermostat for 2 hours at a temperature of 28° C. Then results were checked. […]

Escherichia coli = experiment: Antimicrobial activity by agar dilution, E. Coli
Protocol: as §1

Pseudomonas aeruginosa = experiment: Antimicrobial activity by agar dilution, Ps. aeruginosa
Protocol: as §1

Candida albicans = experiment: Antimicrobial (antifungal) activity by agar dilution, Candida albicans
Protocol: as §1

Measured: inhibition activity compared with the inhibition activity of Furacilin

CC1(C)CC(=O)C2=C(C1)OC13CC(C)(C)CC(=O)C1C2c1cc(Br)ccc1O3 (stereo not shown) [12-bromo-2,16-dioxa-9,9,18,18-tetramethylpentacyclo[7.7.5.0^1,21.0^3,8.0^10,15]henicosa3(8),10,12,14-tetraene-7,20-dione]
higher inhibition activity: all assays above
